Data as given in patent publication US8945594B2, “Vinylic mask with peel-off effect for topical use containing high concentrations of retinoic acid” (Laboratori Farmaceutici Krymi S.p.A., priority 2010, dated 2015).

Tests used:
[1] = Ex vivo determination of skin-accumulated amount of tretinoin contained in the polyvinylic mask; type: in vitro ADME, human; conditions: polyvinylic mask 2.5% Trans-Retinoic acid Lot P10044, n = 3, average ± s.d.
Experimental: Assessing the Absence of Skin Permeation of Retinoic Acid During the Application Period by Ex Vivo Determination of Skin-Accumulated Amount of the Tretinoin Contained in the Polyvinylic Mask
An ex vivo study of the skin-accumulated amount of retinoic acid contained in the polyvinylic mask was conducted at the Department of Pharmaceutical Sciences of the University of Milan. The aim of the work was the assessment of the barrier effect by polyvinyl alcohol toward the percutaneous absorption of Trans-Retinoic acid under standard conditions of use of the mask. A sample of polyvinylic mask containing 2.5% Trans-Retinoic acid (Lot n° P10044) was subjected to the test. The membrane was prepared by using skin of human origin, which is the most appropriate for foreseeing in vivo absorption. As it is known that the skin barrier against permeation of exogenous substances by passive diffusion mainly consists of the corneal layer, absorption was assessed by using as membrane the […] (SCE) obtained by mechanical separation of the derm from the skin.
The difference in the amounts of tretinoin accumulated in the membranes over the two exposure times, reported in the following table 1, is not significant; therefore, it is evident how the barrier formed by polyvinyl alcohol interferes, by inhibiting percutaneous absorption of Trans-Retinoic acid and therefore its undesired systemic effects, which instead are present in products lacking said barrier and containing it.

[2] = cited from earlier work

- Amount of SCE-accumulated tretinoin ([1]; exposure time 30 min): 1.32 ± 1.01 μg/cm^2
- Amount of SCE-accumulated tretinoin, % w/w with respect to the amount applied ([1]; exposure time 30 min): 1.15 ± 0.84 % w/w
- Amount of SCE-accumulated tretinoin ([1]; exposure time 60 min): 1.63 ± 0.23 μg/cm^2
- Amount of SCE-accumulated tretinoin, % w/w with respect to the amount applied ([1]; exposure time 60 min): 1.38 ± 0.12 % w/w
SMILES: CC1=C(/C=C/C(C)=C/C=C/C(C)=C/C(=O)O)C(C)(C)CCC1 [Tretinoin, retinoic acid]
- solubility in dichloromethane [2]: soluble in dichloromethane
- solubility in ethanol [2]: scarcely soluble in ethanol
- solubility in ether [2]: moderately soluble in ether
- solubility in water [2]: practically insoluble in water
